Measured values from patent US8344004B2, “Cyclic pyridyl-N-[1,3,4]-thiadiazol-2-yl-benzene sulfonamides, processes for their preparation and their use as pharmaceuticals” (Sanofi, priority 2007, dated 2013).
Read-outs that look alike come from different tables or passages of the source.

Legend:
[1] = obese, insulin resistant rhesus monkeys; cited from earlier work
human PPARdelta = biological target: T1, human PPARdelta (Homo sapiens, UniProt Q03181); assay: Cellular PPARdelta assay (stably transfected HEK luciferase reporter cell line); assay type: cell-based; conditions: GR-GAL4-humanPPARdelta-LBD
T1 construct: amino acids S139-Y441; expressed in transfected cells; host or cells: HEK cells, stably transfected (pcDNA3, CMV promoter)
T1 sequence (Q03181 139-441): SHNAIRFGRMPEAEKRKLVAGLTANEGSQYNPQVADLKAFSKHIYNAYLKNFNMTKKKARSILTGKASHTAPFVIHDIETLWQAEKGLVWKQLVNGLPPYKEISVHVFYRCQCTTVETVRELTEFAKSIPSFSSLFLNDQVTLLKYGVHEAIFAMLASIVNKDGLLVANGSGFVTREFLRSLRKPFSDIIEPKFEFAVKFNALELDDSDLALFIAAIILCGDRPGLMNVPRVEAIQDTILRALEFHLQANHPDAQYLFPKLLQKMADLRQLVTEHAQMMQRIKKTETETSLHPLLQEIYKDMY
Method: The PPARalphareporter cell line is cultivated to 80% confluence in DMEM (#41965-039, Invitrogen) which is mixed with the following additions: 10% cs-FCS (fetal calf serum; #SH-30068.03, Hyclone), 0.5 mg/ml zeocin (#R250-01, Invitrogen), 0.5 mg/ml G418 (#10131-027, Invitrogen), 1% penicillin-streptomycin solution (#15140-122, Invitrogen) and 2 mM L-glutamine (#25030-024, Invitrogen). The cultivation takes place in standard cell culture bottles (# 353112, Becton Dickinson) in a cell culture incubator at 37° C. in the presence of 5% CO2. The 80%-confluent cells are washed once with 15 ml of PBS (#14190-094, Invitrogen), treated with 3 ml of trypsin solution (#25300-054, Invitrogen) at 37° C. for 2 min, taken up in 5 ml of the DMEM described and counted in a cell counter. After dilution to 500.000 cells/ml, 35,000 cells are seeded in each well of a 96 well microtiter plate with a clear plastic base (#3610, Corning Costar). The plates are incubated in the cell culture incubator at 37° C. and 5% CO2 for 24 h.
PPARalpha agonists to be tested are dissolved in DMSO in a concentration of 10 mM. This stock solution is diluted in DMEM (#41965-039, Invitrogen) which is mixed with 5% cs-FCS (#SH-30068.03, Hyclone), 2 mM L-glutamine (#25030-024, Invitrogen) and the previously described antibiotics (zeocin, G418, penicillin and streptomycin). Test substances are tested in 11 different concentrations in the range from 10 μM to 100 pM.
The medium of the PPARalpha reporter cell line seeded on day 1 is completely removed by aspiration, and the test substances diluted in medium are immediately added to the cells. The dilution and addition of the substances is carried out by a robot (Beckman FX). The final volume of the test substances diluted in medium is 100 μl per well of a 96 well microtiter plate. The DMSO concentration in the assay is less than 0.1% v/v in order to avoid cytotoxic effects of the solvent.
The assay plates are incubated in an incubator at 37° C. and 5% CO2 for 24 h.
The PPARalpha reporter cells treated with the test substances are removed from the incubator, and the medium is aspirated off. The cells are lyzed by pipetting 50 μl of Bright Glo reagent (from Promega) into each well of a 96 well microtiter plate. After incubation at room temperature in the dark for 10 minutes, the microtiter plates are measured in the luminometer (Trilux from Wallac). The measuring time for each well of a microtiter plate is 1 sec.
The raw data from the luminometer are transferred into a Microsoft Excel file. Dose-effect plots and EC50 values of PPAR agonists are calculated using the XL.Fit program as specified by the manufacturer (IDBS).
The potency of substances which bind to human PPARdelta and activate it in an agonistic manner is analyzed using a stably transfected HEK cell line (HEK=human embryo kidney) which is referred to here as PPARdelta reporter cell line. In analogy to the assay described for PPARalpha, the PPARdelta reporter cell line also contains two genetic elements, a luciferase reporter element (pdeltaM-GAL4-Luc-Zeo) and a PPARdelta fusion protein (GR-GAL4-humanPPARdelta-LBD) which mediates expression of the luciferase reporter element depending on a PPARdelta ligand. […] The luciferase which is formed can be detected by means of chemiluminescence via an appropriate substrate. […]

human PPARgamma = biological target: T2, human PPARgamma (Homo sapiens, UniProt P37231); assay: Cellular PPARgamma assay (transiently transfected HEK cells, luciferase reporter); assay type: cell-based; conditions: GAL4-humanPPARgammaLBD
T2 construct: amino acids I152-Y475; expressed in transfected cells; host or cells: HEK cells, transiently transfected with pcDNA3-GAL4-humanPPARgammaLBD
T2 sequence (P37231 182-477 isoform P37231-2 limits assumed): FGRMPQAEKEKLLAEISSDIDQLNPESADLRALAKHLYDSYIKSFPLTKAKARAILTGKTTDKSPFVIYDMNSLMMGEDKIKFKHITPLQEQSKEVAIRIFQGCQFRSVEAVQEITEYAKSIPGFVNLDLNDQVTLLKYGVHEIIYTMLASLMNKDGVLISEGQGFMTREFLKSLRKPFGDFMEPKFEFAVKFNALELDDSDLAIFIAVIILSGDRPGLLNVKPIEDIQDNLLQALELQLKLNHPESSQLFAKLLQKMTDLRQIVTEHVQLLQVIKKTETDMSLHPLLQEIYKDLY
Description: A transient transfection system is employed to determine the cellular PPARgamma activity of PPAR agonists. It is based on the use of a luciferase reporter plasmid (pGL3basic-5×GAL4-TK) and of a PPARgamma expression plasmid (pcDNA3-GAL4-humanPPARgammaLBD). Both plasmids are transiently transfected into human embryonic kidney cells (HEK cells). There is then expression in these cells of the fusion protein GAL4-humanPPARgammaLBD which binds to the GAL4 binding sites of the reporter plasmid. In the presence of a PPARgamma-active ligand, the activated fusion protein GAL4-humanPPARgammaLBD induces expression of the luciferase reporter gene, which can be detected in the form of a chemiluminescence signal after addition of a luciferase substrate. As a difference from the stably transfected PPARalpha reporter cell line, in the cellular PPARgamma assay the two components (luciferase reporter plasmid and PPARgamma expression plasmid) are transiently transfected into HEK cells because stable and permanent expression of the PPARgamma fusion protein is cytotoxic.
The luciferase reporter plasmid pGL3basic-5×GAL4-TK is based on the vector pGL3basic from Promega. The reporter plasmid is prepared by cloning five binding sites of the yeast transcription factor GAL4 (each binding site with the sequence 5′-CTCGGAGGACAGTACTCCG-3′), together with a 160 bp-long thymidine kinase promoter section (Genbank Accession # AF027128) 5′-upstream into pGL3basic. 3′-downstream of the thymidine kinase promoter is the complete luciferase gene from Photinus pyralis (Genbank Accession # M15077) which is already a constituent of the plasmid pGL3basic used. The cloning and sequencing of the reporter plasmid pGL3basic-5×GAL4-TK took place in analogy to the description in Sambrook J. et. al. (Molecular cloning, Cold Spring Harbor Laboratory Press, 1989).
The PPARgamma expression plasmid pcDNA3-GAL4-humanPPARgammaLBD was prepared by first cloning the cDNA coding for amino acids 1-147 of the yeast transcription factor GAL4 (Genbank Accession # P04386) into the plasmid pcDNA3 (from Invitrogen) 3′-downstream of the cytomegalovirus promoter. Subsequently, the cDNA of the ligand-binding domain (LBD) of the human PPARgamma receptor (amino acids I152-Y475; Accession # g1480099) 3′-downstream of the GAL4 DNA binding domain. Cloning and sequencing of the PPARgamma expression plasmid pcDNA3-GAL4-humanPPARgammaLBD again took place in analogy to the description in Sambrook J. et. al. (Molecular cloning, Cold Spring Harbor Laboratory Press, 1989). Besides the luciferase reporter plasmid pGL3basic-5×GAL4-TK and the PPARgamma expression plasmid pcDNA3-GAL4-humanPPARgammaLBD, also used for the cellular PPARgamma assay are the reference plasmid pRL-CMV (from Promega) and the plasmid pBluescript SK(+) from Stratagene. All four plasmids were prepared using a plasmid preparation kit from Qiagen, which ensured a plasmid quality with a minimal endotoxin content, before transfection into HEK cells.
The activity of PPARgamma agonists is determined in a 4-day assay which is described below. Before the transfection, HEK cells are cultivated in DMEM (#41965-039, Invitrogen) which is mixed with the following additions: 10% FCS (#16000-044, Invitrogen), 1% penicillin-streptomycin solution (#15140-122, Invitrogen) and 2 mM L-glutamine (#25030-024, Invitrogen).
Firstly, solution A, a transfection mixture which contains all four plasmids previously described in addition to DMEM, is prepared. […]

[2] = diabetic animal model; cited from earlier work
[3] = rhesus and cynomolgus monkeys; cited from earlier work
[4] = two weeks clinical trials in healthy volunteers; cited from earlier work

| Compound | EC50 (human PPARdelta) [nM] | EC50 (human PPARgamma) [nM] | also measured |
| --- | --- | --- | --- |
| Cc1cc(SCc2sc(-c3ccc(C(F)(F)F)cc3)nc2C)ccc1OCC(=O)O [GW501516] |  |  | HDL-cholesterol [1]: raises; insulin levels [1]: decreases; plasma LDL-cholesterol [1]: decreases; triglycerides [1]: decreases |
| CC(C)c1nnc(NS(=O)(=O)c2ccc([C@@H]3CCC[C@@H]3Nc3ncc(C(F)(F)F)cc3Cl)cc2)s1 [Example 3, Cis-4-[(1S,2R)-2-(3-chloro-5-trifluoromethyl-pyridin-2-ylamino)-cyclopentyl]-N-(5-isopropyl-[1,3,4]thiadiazol-2-yl)-benzene-sulfonamide] | 1 | 1800 |  |
| CCCc1c(OCCCOc2ccc(OCC(=O)O)cc2)ccc(C(C)=O)c1O [Example L-165041] |  |  | plasma cholesterol [2]: raises plasma cholesterol |
| CCCc1c(OCCCSc2nnc(SCC(=O)O)s2)ccc(C(C)=O)c1O [YM-16638] |  |  | plasma lipids [3]: significantly lowers; plasma lipids [4]: acts in a similar manner |
| CC(C)c1nnc(NS(=O)(=O)c2cc3c(cc2Cl)CC(Nc2ncc(C(F)(F)F)cc2Cl)C3)s1 (centres unmarked) [Example 8, 6-Chloro-2-(3-chloro-5-trifluoromethyl-pyridin-2-ylamino)-indan-5-sulfonic acid (5-isopropyl-[1,3,4]thiadiazol-2-yl)amide] | 779 | > 10000 |  |

Second part, led by results:

| EC50 (human PPARdelta) [nM] | EC50 (human PPARgamma) [nM] | Compound | also measured |
| --- | --- | --- | --- |
| 67 | 647 | CC(C)c1nnc(NS(=O)(=O)c2ccc([C@@H]3CCC[C@H]3Nc3ncc(C(F)(F)F)cc3Cl)cc2)s1 [Example 2, Trans-4-[(1S,2R)-2-(3-chloro-5-trifluoromethyl-pyridin-2-ylamino)-cyclopentyl]-N-(5-isopropyl-[1,3,4]thiadiazol-2-yl)-benzene-sulfonamide] |  |
| 60 | 26 | CC(C)c1nnc(NS(=O)(=O)c2ccc(C3(CNc4ncc(C(F)(F)F)cc4Cl)CCCCC3)cc2)s1 [Example 1, 4-{1-[(3-Chloro-5-trifluoromethyl-pyridin-2-ylamino)-methyl]-cyclohexyl}-N-(5-isopropyl-[1,3,4]thiadiazol-2-yl)-benzenesulfonamide] |  |
| 220 | 990 | CC(C)c1nnc(NS(=O)(=O)c2ccc(C3(CNc4ncc(C(F)(F)F)cc4Cl)CCCC3)cc2)s1 [Example 4, 4-{1-[(3-Chloro-5-trifluoromethyl-pyridin-2-ylamino)-methyl]-cyclopentyl}-N-(5-isopropyl-[1,3,4]thiadiazol-2-yl)-benzene-sulfonamide] |  |
